Laboratory results: patent publication US10669250B2, “Hypervalent iodine CF2CF2X reagents and their use” (ETH Zurich, priority 2014, dated 2020)
Counter-ions that a name gives are not always drawn. Each block holds one molecule with its values, some of them ahead of it.

Assay: Storage stability of reagent 7 and its Boc and salt forms
Format: physicochemical
Source text: The synthesis of reagent 7-salt is described in Scheme 1. The phenolic oxygen of Boc-protected NMT (N-methyltyramine) was deprotonated with NaH and treated with BrCF2CF2Br (Halon 2402) giving the bromide 4, which was converted to corresponding fluoroalkylsilane 5. […] For that reason, it was generated in situ from 7-salt by addition of base in all subsequent syntheses.

storage stability (isolated deprotected reagent, stored in a freezer): decomposed rapidly
SMILES: CNCCc1ccc(OC(F)(F)C(F)(F)I2OC(C)(C)c3ccccc32)cc1 [Reagent 7, 2-(4-(2-(3,3-Dimethyl-1λ^3-benzo[d][1,2]iodaoxol-1 (3H)-yl)-1,1,2,2-tetrafluoroethoxy)phenyl)-N-methylethan-1-amine]

storage stability (brown oil, at −20° C.): stable for at least for six months
SMILES: CN(CCc1ccc(OC(F)(F)C(F)(F)I2OC(C)(C)c3ccccc32)cc1)C(=O)OC(C)(C)C [Reagent 7-Boc, tert-Butyl (4-(2-(3,3-dimethyl-1λ^3-benzo[d][1,2]iodaoxol-1 (3H)-yl)-1,1,2,2-tetrafluoroethoxy)phenethyl)-(methyl)carbamate]

storage stability (crystalline, at room temperature): appeared stable
SMILES: CNCCc1ccc(OC(F)(F)C(F)(F)I2OC(C)(C)c3ccccc32)cc1 [Reagent 7-salt, 3,3-Dimethyl-1-(1,1,2,2-tetrafluoro-2-(4-(2-(methylammonio)ethyl)phenoxy)ethyl)-2,3-dihydro-1H-1λ^3-benzo[d][1,2]iodaoxol-2-ium bis(trifluoroacetate)]
